The target in test [1] is SHP-2 enzyme (Met1-Leu525) (Homo sapiens (Human), UniProt Q06124). Kind of test: SHP2 inhibition enzymatic assay. It counts as biochemical. The following applies: read-out: SHP2wt-IC50. On the procedure:
The assay was performed as described in YP Chen et al, Nature (535)2016. Assay volume of 20 μL/well was assembled in 384 well black polystyrene low-binding microplates (Greiner), using the following buffer: 60 mM HEPES pH 7.2, 75 mM NaCl, 75 mM KCl, 1 mM EDTA pH 8, 0.05% tween-20, 5 mM DTT. The SHP-2 enzyme (synthetized by Origene, Met1-Leu525, cat #TP750155) was used at a final concentration of 0.5 nM. The enzyme was activated by 500 nM IRS1 peptide (sequence: H2N-LN(pY)IDLDLV(dPEG8)LST(pY)ASINFQK-amide SEQ ID No. 1) and incubated with 75 μM DiFMUP (Sigma) as substrate.
Briefly, DMSO serially diluted testing compounds were transferred to the bottom of the assay plate. SHP2 was then added together with the IRS1 peptide. 30 min post incubation, the DiFMUP substrate was added to the reaction and incubated 30 min at room temperature. Finally 5 μL of 160 μM bpV (Potassium bisperoxo[1,10-phenanthroline]oxovanadate [V], Sigma) were added to stop and quench the reaction. The fluorescence was detected by a microplate reader (Envision, PerkinElmer) according to the DiFMUP excitation and emission wavelength. The lower the fluorescence the higher the SHP2 inhibition. […] The percentage inhibition is fitted against the compound dilutions with a four-parameter logistic regression. The inflection point (i.e. the concentration at which half-maximal inhibition is achieved) is the IC50.

Test [2] has as its system ERK phosphorylation in KYSE-520 cells. Put plainly: Phospho-ERK cellular assay. It counts as cell-based. The following applies: KYSE-520 cells, 2 h at 37° C., phospho-ERK1/2 (Thr202/Tyr204) TR-FRET, read-out: PERK IC50. How it is done:
ERK phosphorylation was detected using the “Advanced phospho-ERK1/2 (Thr202/Tyr204)” TR-FRET kit (Cisbio, Cat #64AERPEG/H), following the manufacturer reagents and instructions.
Briefly, 20.000/well KYSE-520 cells (DSMZ ACC 371) were plated in 6 μL RPMI-1640 (Invitrogen) growth medium, into 384 white low-volume high base TC microplates (Greiner). After an overnight incubation, cells were treated with DMSO serial diluted compounds and incubated for 2 h at 37° C. After incubation, 2 μL/well of 4×Lysis Buffer (Cisbio 64KL1FDF), were added and incubated with cells for 30 min on gentle shaking. Finally, lysates were added with 2 μL/well of Eu cryptate (donor) and D2 (acceptor) conjugated antibodies (as provided by the Cisbio kit #64AERPEG/H) diluted 1:100 in Detection Buffer (as provided by the Cisbio kit #64AERPEG/H). Plates were then sealed and incubated at room temperature in the dark. After an overnight incubation, the TR-FRET signal was detected on a suitable reader (Envision, PerkinElmer). The lower the TR-FRET signal the higher the higher the SHP2 inhibition in cells.
The activity of each compound dilution was calculated as percentage between vehicle DMSO treated cells and no cells, 0% inhibition and 100% inhibition respectively. The percentage activity is fitted against the compound dilutions with a four-parameter logistic regression. The inflection point (i.e. the concentration at which half-maximal inhibition is achieved) is the IC50.
In general terms: In TR-FRET formats the signal depends on donor and acceptor labels being close together.

The mark [3] stands for this setting: 0.5 nM SHP-2 activated by 500 nM IRS1 peptide, 75 μM DiFMUP substrate.

Like-named read-outs stand apart in the source and are kept apart here.

SHP-2 enzyme (Met1-Leu525), sequence (Q06124 1-525): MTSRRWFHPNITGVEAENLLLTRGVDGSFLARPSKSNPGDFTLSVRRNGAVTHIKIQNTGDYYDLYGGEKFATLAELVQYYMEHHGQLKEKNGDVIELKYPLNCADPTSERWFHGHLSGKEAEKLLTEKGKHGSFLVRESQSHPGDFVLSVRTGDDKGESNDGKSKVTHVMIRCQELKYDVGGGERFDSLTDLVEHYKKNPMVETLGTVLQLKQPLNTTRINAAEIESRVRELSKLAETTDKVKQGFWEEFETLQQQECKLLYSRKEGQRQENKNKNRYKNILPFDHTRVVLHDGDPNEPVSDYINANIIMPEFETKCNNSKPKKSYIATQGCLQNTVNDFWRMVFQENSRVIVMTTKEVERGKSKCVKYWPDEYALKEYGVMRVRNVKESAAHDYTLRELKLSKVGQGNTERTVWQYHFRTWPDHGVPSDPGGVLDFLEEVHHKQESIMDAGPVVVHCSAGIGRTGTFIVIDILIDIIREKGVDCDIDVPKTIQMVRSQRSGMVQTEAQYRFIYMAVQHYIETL

With `Cn1cc2cc(-c3ccc4nc(N5CC[C@H]6[C@@H](C5)[C@]6(CN)c5ccccc5F)ccc4n3)ccc2n1` [Example 394, ((1R,6S,7S)-7-(2-fluorophenyl)-3-(6-(2-methyl-2H-indazol-5-yl)-1,5-naphthyridin-2-yl)-3-azabicyclo[4.1.0]heptan-7-yl)methanamine], the IC50 in test [1] (setting [3]) is greater than 3000 nM; in test [2] (Homo sapiens, KYSE-520, 2 h), less than 1000 nM.

`Cc1csc([C@@]2(CN)[C@@H]3CN(c4cnc5c(-c6ccc7nn(CC(F)(F)F)cc7c6Cl)n[nH]c5n4)C[C@@H]32)n1` [Example 518]: the IC50 was less than 500 nM in test [1] (setting [3]) and less than 1000 nM in test [2].

For the compound `Cc1csc(C2(CN)C3CCN(c4cnc5c(-c6ccc(Cl)c7ncccc67)n[nH]c5n4)CC32)n1` (centres unmarked) [Example 442, (3-(3-(8-chloroquinolin-5-yl)-1H-pyrazolo[3,4-b]pyrazin-6-yl)-7-(4-methylthiazol-2-yl)-3-azabicyclo[4.1.0]heptan-7-yl)methanamine], the IC50 in test [1] (setting [3]) is less than 500 nM; in test [2] (Homo sapiens, KYSE-520, 2 h) it was less than 1000 nM.

As to `Cc1csc(C2(CN)C3CCN(c4nc5nc(Sc6cccnc6C(F)(F)F)cnc5[nH]4)CC32)n1` (centres unmarked) [Example 67, (7-(4-methylthiazol-2-yl)-3-(5-((2-(trifluoromethyl)pyridin-3-yl)thio)-1H-imidazo[4,5-b]pyrazin-2-yl)-3-azabicyclo[4.1.0]heptan-7-yl)methanamine], the IC50 in test [1] (setting [3]) is less than 500 nM; in test [2] (Homo sapiens, KYSE-520, 2 h) it was less than 1000 nM.

Turning to `Cc1nc(N)ccc1-c1n[nH]c2nc(N3CC[C@@H]4[C@H](C3)[C@@]4(CN)c3ccccc3F)cnc12` [Example 368, 5-(6-((1S,6R,7R)-7-(aminomethyl)-7-(2-fluorophenyl)-3-azabicyclo[4.1.0]heptan-3-yl)-1H-pyrazolo[3,4-b]pyrazin-3-yl)-6-methylpyridin-2-amine], the IC50 in test [1] (setting [3]) is less than 500 nM; in test [2] (Homo sapiens, KYSE-520, 2 h), less than 1000 nM.

Turning to `Cn1cc2c(Cl)c(-c3n[nH]c4nc(N5CC[C@@H]6[C@H](C5)[C@@]6(CN)c5ccon5)cnc34)ccc2n1` [Example 123, ((1S,6R,7S)-3-(3-(4-chloro-2-methyl-2H-indazol-5-yl)-1H-pyrazolo[3,4-b]pyrazin-6-yl)-7-(isoxazol-3-yl)-3-azabicyclo[4.1.0]heptan-7-yl)methanamine], the IC50 is less than 500 nM in test [1] (setting [3]) and less than 1000 nM in test [2] (Homo sapiens, KYSE-520, 2 h).

For `Cc1c(-c2n[nH]c3nc(N4CC[C@@H]5[C@H](C4)[C@@]5(CN)c4ccccc4Cl)cnc23)ccc2nn(C)cc12` [Example 180, ((1S,6R,7R)-7-(2-chlorophenyl)-3-(3-(2,4-dimethyl-2H-indazol-5-yl)-1H-pyrazolo[3,4-b]pyrazin-6-yl)-3-azabicyclo[4.1.0]heptan-7-yl)methanamine], the concentration for half-maximal inhibition (IC50) is less than 500 nM in test [1] (setting [3]) and less than 1000 nM in test [2] (Homo sapiens, KYSE-520, 2 h).

Turning to `Cn1cnc2ccc(-c3ccc4nc(N5CC[C@@H]6[C@H](C5)[C@@]6(CN)c5ccccc5F)cnc4n3)cc21` [Example 436, ((1S,6R,7R)-7-(2-fluorophenyl)-3-(6-(1-methyl-1H-benzo[d]imidazol-6-yl)pyrido[2,3-b]pyrazin-2-yl)-3-azabicyclo[4.1.0]heptan-7-yl)methanamine], the 50% inhibitory concentration (IC50) in test [1] (setting [3]) is less than 500 nM; in test [2] (Homo sapiens, KYSE-520, 2 h), less than 1000 nM.

Take `NCC1C2CCN(c3cnc(Sc4cccnc4C(F)(F)F)c(N)n3)CC12` (centres unmarked) [Example 75, 6-(7-(aminomethyl)-3-azabicyclo[4.1.0]heptan-3-yl)-3-((2-(trifluoromethyl)pyridin-3-yl)thio)pyrazin-2-amine]: the IC50 in test [1] (setting [3]) was less than 500 nM; in test [2] (Homo sapiens, KYSE-520, 2 h), greater than 5000 nM.

With `NC[C@]1(c2c(F)cccc2F)[C@@H]2CCN(c3cnc4c(-c5cccn6nccc56)n[nH]c4n3)C[C@@H]21` [Example 116, ((1S,6R,7R)-7-(2,6-difluorophenyl)-3-(3-(pyrazolo[1,5-a]pyridin-4-yl)-1H-pyrazolo[3,4-b]pyrazin-6-yl)-3-azabicyclo[4.1.0]heptan-7-yl)methanamine], the IC50 in test [1] (setting [3]) was less than 500 nM; in test [2] (Homo sapiens, KYSE-520, 2 h) it was less than 1000 nM.

In the case of `COc1ccc(-c2n[nH]c3nc(N4CC[C@@H]5[C@H](C4)[C@@]5(CN)c4ccccc4F)cnc23)c2ccc(C)nc12` [Example 201, ((1S,6R,7R)-7-(2-fluorophenyl)-3-(3-(8-methoxy-2-methylquinolin-5-yl)-1H-pyrazolo[3,4-b]pyrazin-6-yl)-3-azabicyclo[4.1.0]heptan-7-yl)methanamine], the IC50 in test [1] (setting [3]) was less than 500 nM; in test [2] (Homo sapiens, KYSE-520, 2 h) it was less than 1000 nM.

Take `Cc1cc(C2(CN)C3CCN(c4cnc5c(-c6ccnc(Cl)c6Cl)n[nH]c5n4)CC32)no1` (centres unmarked) [Example 31, (3-(3-(2,3-dichloropyridin-4-yl)-1H-pyrazolo[3,4-b]pyrazin-6-yl)-7-(5-methylisoxazol-3-yl)-3-azabicyclo[4.1.0]heptan-7-yl)methanamine]: the IC50 in test [1] (setting [3]) was less than 500 nM; in test [2] (Homo sapiens, KYSE-520, 2 h), less than 1000 nM.

With `COc1ccc(-c2n[nH]c3nc(N4CC[C@@H]5[C@H](C4)[C@@]5(CN)c4cccc(F)c4F)cnc23)c2cccnc12` [Example 183, ((1S,6R,7R)-7-(2,3-difluorophenyl)-3-(3-(8-methoxyquinolin-5-yl)-1H-pyrazolo[3,4-b]pyrazin-6-yl)-3-azabicyclo[4.1.0]heptan-7-yl)methanamine], the IC50 in test [1] (setting [3]) was less than 500 nM; in test [2] (Homo sapiens, KYSE-520, 2 h), less than 1000 nM.

As to `Cc1csc([C@@]2(CN)[C@@H]3CN(c4cnc5c(-c6ccc7ncn(C)c7c6Cl)n[nH]c5n4)C[C@@H]32)n1` [Example 483], the IC50 is less than 500 nM in test [1] (setting [3]) and less than 1000 nM in test [2].

On to `Cc1csc([C@@]2(CN)[C@@H]3CCN(c4cnc5c(-c6ccc7nc(C)sc7c6Cl)n[nH]c5n4)C[C@@H]32)n1` [Example 444, ((1S,6R,7S)-3-(3-(7-chloro-2-methylbenzo[d]thiazol-6-yl)-1H-pyrazolo[3,4-b]pyrazin-6-yl)-7-(4-methylthiazol-2-yl)-3-azabicyclo[4.1.0]heptan-7-yl)methanamine], for which the IC50 in test [1] (setting [3]) is less than 500 nM; in test [2] (Homo sapiens, KYSE-520, 2 h), less than 1000 nM.

Consider `Cc1nc2cc(-c3n[nH]c4nc(N5CC[C@@H]6[C@H](C5)[C@@]6(CN)c5ccccc5F)cnc34)ccc2[nH]1` [Example 337, ((1S,6R,7R)-7-(2-fluorophenyl)-3-(3-(2-methyl-1H-benzo[d]imidazol-5-yl)-1H-pyrazolo[3,4-b]pyrazin-6-yl)-3-azabicyclo[4.1.0]heptan-7-yl)methanamine], for which the IC50 in test [1] (setting [3]) was less than 500 nM; in test [2] (Homo sapiens, KYSE-520, 2 h) it was less than 1000 nM.

Regarding `NCC1(c2cccc(F)c2)C2CCN(c3nc4[nH]nc(-c5ccccc5)c4nc3CO)CC21` (centres unmarked) [Example 56, (6-(7-(aminomethyl)-7-(3-fluorophenyl)-3-azabicyclo[4.1.0]heptan-3-yl)-3-phenyl-1H-pyrazolo[3,4-b]pyrazin-5-yl)methanol], the IC50 in test [1] (setting [3]) was less than 500 nM; in test [2] (Homo sapiens, KYSE-520, 2 h), less than 1000 nM.

For the compound `NCC1(c2ccccc2)C2CCN(c3nc4nc(Sc5ccnc(N)c5Cl)cnc4[nH]3)CC21` (centres unmarked) [Example 69, 4-((2-(7-(aminomethyl)-7-phenyl-3-azabicyclo[4.1.0]heptan-3-yl)-1H-imidazo[4,5-b]pyrazin-5-yl)thio)-3-chloropyridin-2-amine], the IC50 was less than 500 nM in test [1] and 1000 to 5000 nM in test [2] (Homo sapiens).

Turning to `Cn1cc2c(Cl)c(-c3n[nH]c4nc(N5C[C@@H]6[C@H](C5)[C@@]6(CN)c5ccccc5F)cnc34)ccc2n1` [Example 499, ((1R,5S,6s)-3-(3-(4-chloro-2-methyl-2H-indazol-5-yl)-1H-pyrazolo[3,4-b]pyrazin-6-yl)-6-(2-fluorophenyl)-3-azabicyclo[3.1.0]hexan-6-yl)methanamine], the IC50 was less than 500 nM in test [1] (setting [3]) and less than 1000 nM in test [2] (Homo sapiens, KYSE-520, 2 h).

As a reminder, the IC50 is the midpoint of a concentration-inhibition curve.

(Values after patent US20240109900A1, “AZABICYCLIC SHP2 INHIBITORS” (IRBM S.P.A., priority 2021, published 2024).)
